Test results taken from BindingDB's records for doi:10.1124/mol.64.6.1342 (University of Pittsburgh, 2003).
pKi: −log10 of the molar value. Values joined by “and” are separate entries in the source; they are usually repeats but may differ in a detail not shown here. Equal values may be shown once.

Legend:
[1] = target: Protein kinase C delta type (Homo sapiens, UniProt Q05655)
[2] = target: Protein kinase C alpha type (Homo sapiens, UniProt P17252)

Protein kinase C delta type, sequence (Q05655 whole entry): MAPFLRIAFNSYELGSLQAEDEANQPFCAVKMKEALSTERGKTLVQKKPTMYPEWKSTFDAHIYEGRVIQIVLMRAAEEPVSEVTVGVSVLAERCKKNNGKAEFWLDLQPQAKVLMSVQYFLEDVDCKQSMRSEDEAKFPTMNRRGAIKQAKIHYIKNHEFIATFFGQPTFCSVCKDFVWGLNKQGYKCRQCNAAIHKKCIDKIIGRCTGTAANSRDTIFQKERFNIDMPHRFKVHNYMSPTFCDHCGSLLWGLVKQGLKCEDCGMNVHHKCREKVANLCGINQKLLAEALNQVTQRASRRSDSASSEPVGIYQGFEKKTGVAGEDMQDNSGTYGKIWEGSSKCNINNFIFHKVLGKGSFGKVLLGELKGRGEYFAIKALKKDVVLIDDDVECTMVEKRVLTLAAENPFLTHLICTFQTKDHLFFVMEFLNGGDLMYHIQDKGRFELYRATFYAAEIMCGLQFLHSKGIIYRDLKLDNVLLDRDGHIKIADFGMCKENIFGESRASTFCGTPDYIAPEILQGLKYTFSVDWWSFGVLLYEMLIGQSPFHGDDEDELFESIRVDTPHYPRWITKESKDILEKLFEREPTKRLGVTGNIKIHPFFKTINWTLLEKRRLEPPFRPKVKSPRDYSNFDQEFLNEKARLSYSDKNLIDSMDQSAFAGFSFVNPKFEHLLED

SMILES | pKi [1] | pKi [2]
CCCCCCCCc1ccc2c3c(c[nH]c13)CC(CO)NC(=O)C(C(C)C)N2C (configuration not stated) [CAS_159320] | 9.11 | 9.28
CC(C)C1C(=O)NC(CO)Cc2c[nH]c3cccc(c23)N1C (stereo not drawn) [(-)-Indolactam V (low PS)] | 8.09 and 7.37 | 7.90
CC1=CC2C(O)(CC(CO)=CC3C4C(C)(C)C4(OC(=O)Cc4ccccc4)CC(C)C32O)C1=O (configuration not stated) [NSC_105100] | 9.25 | 9.85
C=C(C)C12OC3(c4ccccc4)OC1C1C4OC4(CO)C(O)C4(O)C(=O)C(C)=CC4C1(O3)C(C)C2OC(=O)C=Cc1ccccc1 (configuration not stated) [NSC_6437389] | 8.88 and 7.97 | 9.54 and 9.66
C=C(C)C12OC3(c4ccccc4)OC1C1C4OC4(CO)C(O)C4(O)C(=O)C(C)=CC4C1(O3)C(C)C2OC(=O)C=CC=Cc1ccccc1 (configuration not stated) [NSC_4179] | 9.26 | 9.57
CCC(C)(C/C=C1/CC(CO)(COC(=O)CC(C)(CC)C(C)C)OC1=O)C(C)C (stereo not drawn) [B8-DL-B8 (low PS)] | 7.94 and 8.00 | 8.54 and 8.45
